Legend:
[1] = Inclusion of leuprolide acetate in liposomes (ultracentrifugation, RP-HPLC); format: physicochemical; conditions: formulation L1 DPPC/DPPG/Chol liposomes, 100 mM lipid, extrusion 400 nm
Method: is dissolved in chloroform at 50° C. and subsequently dried completely in vacuum in a rotary evaporator. The lipid film is added with leuprolide acetate solution (2.5 mg/ml in 10 mM HEPES, 150 mM NaCl, pH 6) in an amount so as to form a 100 mM suspension. Subsequently, this suspension is hydrated in a water bath at 50° C for 45 minutes with agitating. Thereafter, the suspension is frozen. This is followed by 3 additional cycles of freezing and thawing.
Following final thawing, the liposomes are subjected to multiple extrusions through a membrane having a pore width of 400 nm (Avestin LiposoFast, polycarbonate membrane with a pore width of 400 nm).
Following removal of free leuprolide acetate, the percentage of entrapped leuprolide acetate is determined by means of triple sedimentation in an ultracentrifuge at 60,000×g for 45 minutes. The leuprolide acetate is determined following extraction with CHCl3 and CH3OH, using RP-HPLC. Inclusion rates of about 15% leuprolide acetate are found.

[2] = Inclusion of insulin in liposomes (ELISA after liberation from liposomes); format: physicochemical; conditions: DPPC/DPPG/Chol 50:10:40 liposomes, 50 mM lipid, extrusion 200 or 400 nm
Method: A mixture of 50 mole-% DPPC, 10 mole-% DPPG and 40 mole-% Chol is dissolved in chloroform at 50° C. and subsequently dried completely in vacuum in a rotary evaporator. The lipid film is added with human insulin solution (recombinant insulin; 7.5 mg/ml insulin in 10 mM glycine-HCl, 300 mM sucrose, pH 3) in an amount so as to form a 50 mM suspension. Subsequently, this suspension is hydrated in a water bath at 50° C. for 45 minutes by agitating and treated in an ultrasonic bath for another 5 minutes. Thereafter, the suspension is frozen. This is followed by 3 cycles of freezing and thawing, each thawing being followed by a 5 minute treatment in the ultrasonic bath.
Following final thawing, the liposomes are subjected to multiple extrusions through a membrane having a pore width of 200 nm or 400 nm (Avestin LiposoFast, polycarbonate membrane with a pore width of 200 or 400 nm). Following extrusion, the resulting suspension is rebuffered by adding a solutions of HEPES, pH 7.5, and NaCl. After filtration of the liposomes through […], non-entrapped insulin is removed by gel filtration (S-200 column, Pharmacia) . Following liberation from the liposomes, the amount of entrapped insulin is determined by means of an ELISA (DRG-ELISA Kit). Inclusion rates of 50-70% insulin are found.

Inclusion rate of leuprolide acetate [1] | Compound | Inclusion rate of insulin [2]
about 15% | CCNC(=O)[C@@H]1CCCN1C(=O)[C@H](CCCNC(=N)N)NC(=O)[C@H](CC(C)C)NC(=O)[C@@H](CC(C)C)NC(=O)[C@H](Cc1ccc(O)cc1)NC(=O)[C@H](CO)NC(=O)[C@H](Cc1c[nH]c2ccccc12)NC(=O)[C@H](Cc1c[nH]cn1)NC(=O)[C@@H]1CCC(=O)N1 [leuprolide acetate] | –
– | insulin: recombinant human insulin entrapped in DPPC/DPPG/Chol 50:10:40 liposomes | 50-70%
